Values after ≈ are worked out from the molar mass of the structure shown. Like-named read-outs stand apart in the source and are kept apart here.
Key:
[1] = test system: Staphylococcus aureus (ATCC 29737); assay: Antibacterial activity (MIC) against Staphylococcus aureus; type: cell-based
Source text: (§1) FIG. 1A depicts the inhibition of S. aureus growth at varying concentrations of nigericin from Streptomyces sp. MCC-0151. FIG. 1B depicts the antibacterial activity of nigericin from Streptomyces sp. MCC0151 against S. aureus.

[2] = test system: Bacillus cereus (ATCC 11778); assay: Antibacterial activity (MIC) against Bacillus cereus; type: cell-based; conditions: ATCC11778, range stated over five gram-positive microorganisms, read-out: minimum inhibitory concentration (MIC)
[3] = test system: P. falciparum strain 3D7; assay: Antimalarial activity: inhibition of blood-stage malaria parasite growth (SybrGreen I); type: cell-based; conditions: Plasmodium falciparum, 60 h incubation
Protocol: Asexual stage of P. falciparum strain 3D7 (received as a gift from collaborator team) was maintained under standard conditions at 2% hematocrit with 0+ human erythrocytes (Blood obtained from Poona Serological Trust Blood Bank, Pune) in RPMI1640 containing 15 mM HEPES, 50 mg/L Gentamicin sulfate 10 mg/L hypoxanthine, 2 g/L sodium bicarbonate (Sigma-Aldrich) and 2.5 g/L AlbuMAX II (Thermo Fisher Scientific). Parasites were synchronized using 5% sorbitol (Sigma-Aldrich) for the enrichment of ring-stage parasite. In brief, P. falciparum cultures were collected by centrifugation at 1,000 g for 5 min at 25° C. and the parasitized RBC pellet was resuspended 5% sorbitol, followed by incubation at 37° C. for 10 min. Following incubation, the cells were pelleted and washed with complete medium, prior to placing the parasites back into culture flasks at 2% hematocrit and 2% parasitemia.
Assays were typically set up in 96-well plate format and 2% of parasitized culture was used per well. The stock solution of the nigericin was prepared in DMSO, and so 0.5% DMSO (equivalent to the DMSO present in the nigericin-treated samples) treatment was used as a control. […]

[4] = test system: Listeria monocytogenes (ATCC 19111); assay: Antibacterial activity (MIC) against Listeria monocytogenes; type: cell-based; conditions: ATCC19111, range stated over five gram-positive microorganisms, read-out: minimum inhibitory concentration (MIC)
Source text: as §1

[5] = test system: Staphylococcus epidermidis (ATCC 12228); assay: Antibacterial activity (MIC) against Staphylococcus epidermidis; type: cell-based; conditions: ATCC12228, range stated over five gram-positive microorganisms, read-out: minimum inhibitory concentration (MIC)
[6] = Toxicokinetic study, 14-day repeated intraperitoneal administration in Sprague-Dawley rats; type: in vivo; conditions: for Tmax / AUClast / Cmax / AUC(0-t) / Cmax at 14 day / Tmax at 14 day: Sprague-Dawley, ip; for AUC(0-t): AUClast
Protocol: (§2) A 14-day repeat-intraperitoneal administration protocol was used for carrying out toxicokinetic studies with nigericin. Male and female animals were divided into three groups each based on the dose of nigericin administered (0.5, 1.5 and 5 mg/kg/day). Each group received the administration of the compound at the same dose every day for 14 days. The toxicokinetic parameters were quantified following the first (i.e., day-1) and last (i.e., day-14) administration of nigericin, and the findings are tabulated in Table-3. Following administration on day-1, nigericin was quantifiable in the plasma of the animals for up to 24 h, in all three dose-categories, in both genders. After the administration of the second dose on day-14, plasma concentrations were quantifiable up to 8 h for 0.5 mg/kg/day dose category and up to 24 h for 1.5 mg/kg/day dose category, in both genders.

[7] = test system: Sprague-Dawley rats; assay: 14-day repeated intraperitoneal dose toxicity in Sprague-Dawley rats; type: in vivo; conditions: for mortality: female rats, 5 mg/kg/day IP, before Day 14, 5 mg/kg/day
Protocol: as §2
The 5 mg/kg/day was lethal in females.

[8] = test system: Micrococcus luteus (ATCC 11880); assay: Antibacterial activity (MIC) against Micrococcus luteus; type: cell-based; conditions: ATCC11880, range stated over five gram-positive microorganisms, read-out: minimum inhibitory concentration (MIC)
Source text: as §1

[9] = in vivo; parameters: species or system Sprague Dawley rats; conditions: male, Sprague Dawley, rat
Protocol: Oral solution bioavailability was 2%.
Plasma Pharmacokinetics study of Nigericin was carried out using three different routes of administration i.e. Intravenous (IV), Oral (O) and Intraperitoneal (IP). Based on above study, the intraperitoneal route of administration was selected to study the toxicokinetic profiling of Nigericin.

[10] = test system: murine splenocytes; type: cell-based
Source text: FIG. 3 depicts a comparison of the in-vitro toxicity of nigericin isolated from Streptomyces sp. MCC-0151 and commercially available Nigericin on murine splenocytes. ‘▴’ represents nigericin from Streptomyces sp. MCC 0151 and ‘▾’ represents standard Nigericin.
MCCO151 and Sigma standard nigericin. Nigericin produced from Streptomyces sp.

[11] = female, rat, in vivo, 0.5 mg/kg/day
[12] = female, rat, in vivo, 1.5 mg/kg/day
[13] = male, rat, in vivo, 0.5 mg/kg/day, Cmax
[14] = male, rat, in vivo, 0.5 mg/kg/day, Tmax
[15] = male, rat, in vivo, 1.5 mg/kg/day
[16] = male, rat, in vivo, 1.5 mg/kg/day, Cmax
[17] = male, rat, in vivo, 1.5 mg/kg/day, Tmax
[18] = male, rat, in vivo, 5 mg/kg/day
[19] = male, rat, in vivo, 5 mg/kg/day, Cmax
[20] = male, rat, in vivo, 5 mg/kg/day, Tmax
[21] = 14-day repeated IP, conclusion of study

With CO[C@@H]1C[C@@H](C[C@H]2CC[C@H](C)[C@H]([C@@H](C)C(=O)O)O2)O[C@]2(O[C@](C)([C@H]3CC[C@@](C)([C@@H]4O[C@@H]([C@H]5O[C@@](O)(CO)[C@H](C)C[C@@H]5C)C[C@@H]4C)O3)C[C@H]2C)[C@@H]1C [nigericin] the MIC ([1]; ATCC29737, against Staphylococcus aureus, read-out: MIC) was 0.21 µg/mL, the MIC ([1]; ATCC29737, against Staphylococcus aureus, read-out: MIC Conc.) was 0.288 µM and the MIC ([1]; Staphylococcus aureus, ATCC29737, range stated over five gram-positive microorganisms, read-out: minimum inhibitory concentration (MIC)) was 0.25 to 0.5 µM. For the same compound, the MIC ([1]; against Staphylococcus aureus, read-out: MIC) was 0.21 µg/mL, the MIC [2] was 0.25 to 0.5 µM (≈ 0.181 to 0.362 µg/mL) and the IC50 ([3]; read-out: IC50 against P. falciparum) was about 0.986 nM. For the same compound, the EC50 ([3]; blood-stage parasite growth, n=3) was 2.4 nM, the MIC [4] was 0.25 to 0.5 µM (≈ 0.181 to 0.362 µg/mL) and the MIC [5] was 0.25 to 0.5 µM (≈ 0.181 to 0.362 µg/mL). The “male/female exposure ratio (AUClast)” value ([6]; Day 1, 0.5 mg/kg/day) was 2.11, the “male/female exposure ratio (AUClast)” value ([6]; Day 1, 1.5 mg/kg/day) was 0.68 and the “male/female exposure ratio (AUClast)” value ([6]; Day 1, 5 mg/kg/day) was 1.15. For the same compound, the “male/female exposure ratio (AUClast)” value ([6]; Day 14, 0.5 mg/kg/day) was 0.90, the “male/female exposure ratio (AUClast)” value ([6]; Day 14, 1.5 mg/kg/day) was 1.21 and the Tmax ([6]; rat, in vivo, Mean Tmax across the doses) was 4.8 to 25.2 min. For the same compound, the “accumulation following repeated intraperitoneal dose administration” value ([6]; across the doses, both genders) was “No trend of accumulation”, the “quantifiable in plasma for up to” value ([6]; day-1, all three doses (0.5, 1.5, 5 mg/kg/day IP), both genders) was “up to 24 h” and the “accumulation ratio (AUClast) on Day 14” value ([6]; female, 0.5 mg/kg/day) was 1.04. The “accumulation ratio (AUClast) on Day 14” value ([6]; female, 1.5 mg/kg/day) was 0.51, the Dose exposure ratio ([6]; female, Day 1, dose increase 0.5 to 1.5 mg/kg/day) was 5.91 and the Dose exposure ratio ([6]; female, Day 1, dose increase 1.5 to 5 mg/kg/day) was 2.33. The Dose exposure ratio ([6]; female, Day 14, dose increase 0.5 to 1.5 mg/kg/day) was 2.89, the AUClast [6, 11] was 549.87 ng·h/mL and the Cmax [6, 11] was 222.17 ng/mL. It also gave an AUC(0-t) [6, 11] of 527 ng·h/mL, a Cmax ([6]; female, rat, in vivo, 0.5 mg/kg/day, Cmax) of 188 ng/mL and a Tmax ([6]; female, rat, in vivo, 0.5 mg/kg/day, Tmax) of 19.8 min. The AUClast [6, 12] was 1589.38 ng·h/mL, the Cmax [6, 12] was 710.63 ng/mL and the AUC(0-t) [6, 12] was 3120 ng·h/mL. It also gave a Cmax ([6]; female, rat, in vivo, 1.5 mg/kg/day, Cmax) of 840 ng/mL, an AUC(0-t) ([6]; female, rat, in vivo, 5 mg/kg/day) of 7260 ng·h/mL and a Cmax ([6]; female, rat, in vivo, 5 mg/kg/day, Cmax) of 2440 ng/mL. For the same compound, the Tmax ([6]; female, rat, in vivo, 5 mg/kg/day, Tmax) was 19.8 min, the “accumulation ratio (AUClast) on Day 14” value ([6]; male, 0.5 mg/kg/day) was 0.44 and the “accumulation ratio (AUClast) on Day 14” value ([6]; male, 1.5 mg/kg/day) was 0.90. For the same compound, the “accumulation ratio (AUClast) on Day 14” value ([6]; male, 5 mg/kg/day) was 0.98, the Dose exposure ratio ([6]; male, Day 1, dose increase 0.5 to 1.5 mg/kg/day) was 1.91 and the Dose exposure ratio ([6]; male, Day 1, dose increase 1.5 to 5 mg/kg/day) was 3.93. For the same compound, the Dose exposure ratio ([6]; male, Day 14, dose increase 0.5 to 1.5 mg/kg/day) was 3.89, the Dose exposure ratio ([6]; male, Day 14, dose increase 1.5 to 5 mg/kg/day) was 4.26 and the Cmax [6, 13] was 403 ng/mL. The Cmax at 14 day [6, 13] was 200 ng/mL, the Tmax [6, 14] was 15 min and the Tmax at 14 day [6, 14] was 16.8 min. The AUClast [6, 15] was 2126.23 ng·h/mL, the AUC(0-t) [6, 15] was 1920 ng·h/mL and the Cmax [6, 16] was 830 ng/mL. It also gave a Cmax at 14 day [6, 16] of 815 ng/mL, a Tmax [6, 17] of 19.8 min and a Tmax at 14 day [6, 17] of 4.8 min. The AUClast [6, 18] was 8347.82 ng·h/mL, the AUC(0-t) [6, 18] was 8190 ng·h/mL and the Cmax [6, 19] was 2390 ng/mL. For the same compound, the Cmax at 14 day [6, 19] was 3060 ng/mL, the Tmax [6, 20] was 19.8 min and the Tmax at 14 day [6, 20] was 19.8 min. The “plasma exposure (AUClast) with increase in dose” value ([6]; rat, in vivo) was “dose-related increase”, the abnormal clinical signs ([7]; 0.5 mg/kg/day IP, 14 consecutive days) was “did not result in abnormal clinical signs” and the “dose that can be lethal” value [7, 21] was “above 5 mg/kg”. The “dose that will not cause any clinical adversity” value [7, 21] was under 1.5 mg/kg, the mortality [7] was “Mortality was observed” and the mortality ([7]; listed as Nigericin) was “lethal”. For the same compound, the mortalities ([7]; up to 1.5 mg/kg/day IP, 14 consecutive days) was “did not result in”, the “effect on ophthalmoscopy, coagulation, urinalysis and reticulocytes count” value ([7]; up to highest surviving dose 1.5 mg/kg/day IP) was “no test item related effect” and the MIC [8] was 0.25 to 0.5 µM (≈ 0.181 to 0.362 µg/mL). For the same compound, the Tmax ([9]; ip, 2 mg/kg) was 15 min, the “plasma concentrations quantifiable up to” value ([9]; ip, 2 mg/kg) was “up to 24 hr” and the “Vss relative to normal volume of total body water (0.7 L/kg)” value ([9]; iv, 2 mg/kg) was 2.3 fold. It also gave a clearance ([9]; iv, 2 mg/kg) of 15.1 mL/min/kg, a half-life ([9]; iv, 2 mg/kg) of 212 min and a Tmax ([9]; po, 10 mg/kg) of 37.8 min. For the same compound, the bioavailability ([9]; po, 10 mg/kg) was 2%, the “plasma concentrations quantifiable up to” value ([9]; po, 10 mg/kg) was “up to 24 hr” and the “toxicity against murine splenocytes compared to commercially available nigericin (Sigma)” value [10] was “no statistically significant difference”.

Source: patent publication US12018305B2, “Process for production of nigericin from Streptomyces sp. MCC-0151” (Council of Scientific & Industrial Research, priority 2018, dated 2024)
